Here are results for 14 compounds from PubChem BioAssay (NCI).

Holding throughout (assay): DTP human tumour cell line panel, 48 h
The test system of assay [1] is SW-620 colon.
The test system of assay [2] is ACHN renal.
Assay [3] deals with DU-145 prostate.
In assay [4] the test system is SK-MEL-5 melanoma.
Assay [5] concerns OVCAR-8 ovarian.
Assay [6] relates to NCI-H23 lung.
Assay [7] concerns SN12C renal.
Assay [8] relates to HOP-92 NSCLC.
The subject of assay [9] is OVCAR-4 ovarian.
For assay [10], the system named is U251 CNS.

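Step 1: Grow cells in 96-well plates. Step 2: Expose to compound for 48 hours at 5 concentrations. Step 3: Interpolate endpoints linearly; if unreached, use highest concentration. Here, GI50 denotes the concentration required for 50% inhibition of growth. TGI is the concentration that stops growth completely.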

Take `COc1cc2c(/C=C3/C(=O)Nc4ccc(O)cc43)c(Cl)n(Cc3cc(OC)c(OC)c(OC)c3)c2cc1C`: the GI50 in [1] is 3.28 µM; in [2], 3.43 µM; in assay [3] it was 3.42 µM; in assay [4], 1.02 µM; in assay [5], 3.05 µM; in assay [6] it was 3.54 µM. In addition, the GI50 in assay [7] was 4.14 µM; in [8], 3.18 µM; in assay [9], 4.03 µM; in [10], 2.49 µM. Besides, the TGI in assay [1] is more than 100 µM; in assay [2], more than 100 µM; in [3] it was more than 30.3 µM; in [4], 2.71 µM; in assay [5], more than 26.5 µM; in assay [6] it was more than 100 µM. Further, the concentration for total growth inhibition (TGI) is more than 44 µM in assay [7], 21.9 µM in assay [8], more than 100 µM in assay [9] and more than 28.3 µM in assay [10].
In the case of `CCN(CC)CCCNc1n[n+]([O-])c2ccccc2[n+]1[O-]`, the TGI is more than 100 µM in assay [1]; 53.1 µM in assay [2]; 66.9 µM in [3]; 3.54 µM in assay [4]; 29.3 µM in assay [5]; 46.9 µM in [6]. Also, the TGI is 27.9 µM in assay [7], more than 100 µM in [8], more than 100 µM in assay [9] and more than 100 µM in assay [10].
Consider `Cc1c[nH]c(=O)n(Cc2nnc(CCC(=O)c3nc4ccccc4[nH]3)o2)c1=O`, for which the GI50 in assay [1] was 0.483 µM; in assay [2], 7.56 µM; in assay [3] it was 0.337 µM; in assay [4], 0.33 µM; in [5], 0.661 µM; in assay [6] it was 0.432 µM. For the same compound, the GI50 in assay [7] was 1.12 µM; in assay [8] it was 1.44 µM; in assay [9], 0.629 µM; in assay [10], 0.372 µM. Moreover, the TGI in [1] was more than 100 µM; in assay [2], more than 100 µM; in [3] it was 1.21 µM; in assay [4], 67.7 µM; in [5], more than 100 µM; in [7], more than 100 µM. The TGI in assay [8] is more than 100 µM; in assay [9] it was more than 100 µM; in [10], more than 42.5 µM.
Regarding `COc1ccccc1NC(=O)CC(=O)n1nc(C)c(N=Nc2ccccc2Cl)c1C`, the TGI is more than 100 µM in assay [1]; more than 100 µM in assay [2]; more than 100 µM in assay [3]; more than 100 µM in assay [4]; more than 100 µM in [5]; more than 44.7 µM in assay [6]. Further, the TGI was more than 100 µM in assay [7], more than 100 µM in assay [8], more than 100 µM in [9] and more than 44.2 µM in assay [10].
As for `NNc1nc2ccccc2o1`, the TGI in assay [1], in assay [2], in assay [3], in assay [4], in [5] and in assay [6] was more than 100 µM throughout. Also, the TGI in [7], in [8], in [9] and in assay [10] was more than 100 µM in each case.
In the case of `COc1ccc2nc3c(cc2c1)C(=O)CC(c1ccccc1)C3` (configuration not stated), the GI50 is 0.727 µM in [1]; 0.853 µM in [2]; 0.595 µM in assay [3]; 0.979 µM in assay [4]; 0.934 µM in [5]; 5.4 µM in assay [6]. For the same compound, the GI50 in assay [7] is 0.732 µM; in [9], more than 100 µM; in assay [10], 5.81 µM. The TGI in [1] was more than 100 µM; in assay [2], more than 100 µM; in [3] it was more than 58.1 µM; in assay [4], 44.5 µM; in assay [5], more than 100 µM; in assay [6] it was more than 100 µM. Moreover, the TGI in assay [7], in [8], in [9] and in [10] was more than 100 µM throughout.
As to `O=C(Nc1cccc(C(F)(F)F)c1)c1ccc(NC2=C(Cl)C(=O)N(Cc3ccccc3)C2=O)cc1`, the GI50 was 5.11 µM in [1]; 15.3 µM in [2]; 3.38 µM in assay [3]; 4.07 µM in [4]; 38.4 µM in assay [5]; 4.13 µM in assay [6]. Moreover, the GI50 in assay [7] was 4.4 µM; in [8] it was 3.93 µM; in assay [9], 25.8 µM; in [10] it was 13.7 µM. The total growth inhibition concentration (TGI) was more than 100 µM in [1]; 29.5 µM in assay [2]; 12.3 µM in assay [3]; 18.1 µM in assay [4]; more than 100 µM in assay [5]; 13.4 µM in assay [6]. In addition, the TGI stood at 20.1 µM in assay [7], 14.2 µM in [8], 54.7 µM in assay [9] and 27.1 µM in assay [10].
On to `O=S(=O)(O)n1ccnc1` (tested in a mixture with another compound), for which the TGI in [1], in assay [2], in [3], in assay [4], in assay [5] and in assay [6] was more than 100 µM throughout. Besides, the TGI in assay [7], in assay [8], in assay [9] and in [10] was more than 100 µM each time.
As to `CC(=O)Nc1ccc(OC(C)=O)cc1`, the GI50 is less than 0.01 µM in [1]; less than 0.01 µM in assay [2]; less than 0.0105 µM in assay [3]; less than 0.01 µM in assay [4]; less than 0.01 µM in [5]; less than 0.01 µM in [6]. The GI50 in [7] is less than 0.01 µM; in assay [8] it was less than 0.0116 µM; in assay [9], less than 0.01 µM; in assay [10] it was less than 0.01 µM. Besides, the TGI in assay [1] was more than 100 µM; in [2], 76 µM; in assay [3], 0.0172 µM; in assay [4] it was less than 0.01 µM; in assay [5], more than 49.1 µM; in assay [6], 60.3 µM. Also, the TGI was 49.1 µM in [7], 1.81 µM in assay [8], more than 91.7 µM in assay [9] and more than 37.7 µM in [10].
On to `CC1=C2[C@@H](CC1)[C@]1(C)O[C@@](C(C)C)(C[C@H]1OC(=O)CO)[C@H]2OC(=O)CCCc1ccccc1`, for which the GI50 in assay [1] was 11 µM; in [2] it was 7.02 µM; in assay [3], 8.82 µM; in [4], 7.91 µM; in assay [5], 4.58 µM; in assay [6], 11.3 µM. The GI50 was 4.52 µM in [7], 3.86 µM in assay [8], 11.9 µM in assay [9] and 5.61 µM in assay [10]. Besides, the TGI in assay [1] came to 25.4 µM; in assay [2] it was 19.3 µM; in [3], 20.9 µM; in [4], 20.3 µM; in [5], 26.8 µM; in [6] it was 27.6 µM. In addition, the TGI in assay [7] is 18 µM; in assay [8], 18 µM; in [9], 29.1 µM; in assay [10], 20.9 µM.
For the compound `O=C1OC(c2ccc(Cl)cc2)=N/C1=C\c1ccccc1`, the concentration for total growth inhibition (TGI) in [1], in [2], in assay [3], in assay [4], in assay [5] and in assay [6] was more than 100 µM throughout. Also, the TGI in assay [7], in assay [8], in assay [9] and in assay [10] was more than 100 µM in each case.
`CC(C)=Cc1cccc2[nH]c(O)c(N=Nc3ccc(S(N)(=O)=O)cc3)c12`: the GI50 in assay [1] was 1.14 µM; in assay [2], 2.09 µM; in assay [3] it was 5.09 µM; in assay [5] it was 5 µM; in [6], 7.25 µM; in [7] it was more than 25 µM. For the same compound, the GI50 in assay [8] was 6.57 µM; in assay [9] it was 1.26 µM; in assay [10], 4.24 µM. Also, the total growth inhibition concentration (TGI) in assay [1], in assay [2], in assay [3], in assay [4], in assay [5] and in [6] was more than 25 µM in each case. Further, the TGI in assay [7], in [8], in assay [9] and in assay [10] was more than 25 µM each time.
For the compound `Cc1cc(=O)oc2cc3oc(N(C)c4ccccc4)nc(=O)c3cc12`, the TGI in assay [1], in assay [2], in assay [3], in [4], in assay [5] and in assay [6] was more than 100 µM in each case. The TGI in assay [7], in assay [8], in assay [9] and in [10] was more than 100 µM each time.
Take `Cc1ccc2[nH]c(C(=O)NN3C(=O)C(C)SC34CCC(C)CC4)c(-c3ccccc3)c2c1` (configuration not stated): the GI50 in assay [1] was 31.4 µM; in [2], 19.9 µM; in assay [3], 21.8 µM; in assay [4], 18.4 µM; in assay [5], 21.2 µM; in assay [6], 15.2 µM. Further, the GI50 in [7] was 13 µM; in assay [8], 16.7 µM; in [9], 14.8 µM; in [10] it was 15.7 µM. Also, the TGI in assay [1] amounted to 82.6 µM; in assay [2], 44.2 µM; in assay [3] it was 54.3 µM; in assay [4] it was 36.3 µM; in [5] it was 53.2 µM; in assay [6], 32 µM. Further, the TGI in [7] was found to be 28 µM; in assay [8], 36 µM; in assay [9], 34.7 µM; in assay [10], 34.1 µM.

One may read the GI50 as the concentration that inhibits growth by half. As a reminder, the TGI is the concentration giving total growth inhibition.
